Laboratory results published in patent publication US5482967A, “Condensed heterocyclic compounds, their production and use” (Takeda Chemical Industries, Ltd., priority 1992, dated 1996).

Legend:
[1] = molecular target: T1, acyl-CoA:cholesterol acyl transferase (ACAT) (Rattus norvegicus, UniProt Q7TQM4); assay: Inhibitory action against acyl-CoA:cholesterol acyl transferase (ACAT), formation of labeled cholesterol ester, small intestine mucosal microsome fraction; type: biochemical, male Sprague-Dawley rat; conditions: 10^-6 M; read-out: ACAT Inhibitory Rate (%)
T1 construct: small intestine mucosal microsome fraction of a 6-week-old male Sprague-Dawley rat; from tissue; host or cells: rat small intestine mucosa, microsome fraction
T1 sequence (Q7TQM4 1-524): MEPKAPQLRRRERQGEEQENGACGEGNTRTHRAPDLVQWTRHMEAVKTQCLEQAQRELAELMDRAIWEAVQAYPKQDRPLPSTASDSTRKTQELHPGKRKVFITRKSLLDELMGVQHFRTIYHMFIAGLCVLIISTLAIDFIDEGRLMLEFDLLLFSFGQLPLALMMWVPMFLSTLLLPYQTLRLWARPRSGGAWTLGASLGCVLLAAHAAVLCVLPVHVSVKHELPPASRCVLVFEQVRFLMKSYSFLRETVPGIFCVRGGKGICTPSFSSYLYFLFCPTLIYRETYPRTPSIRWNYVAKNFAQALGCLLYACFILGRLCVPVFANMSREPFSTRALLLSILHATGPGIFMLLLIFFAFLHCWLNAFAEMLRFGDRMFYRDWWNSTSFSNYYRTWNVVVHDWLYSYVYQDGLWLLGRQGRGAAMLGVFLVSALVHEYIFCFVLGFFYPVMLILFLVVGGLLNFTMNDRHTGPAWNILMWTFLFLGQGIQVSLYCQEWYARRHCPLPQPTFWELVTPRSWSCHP
Experimental: An ACAT enzyme preparation was prepared from a small intestine mucosal microsome fraction of a 6-week-old male Sprague-Dawley rat, previously fasted for 20 hours, in accordance with the method described by Heider et al. in the Journal of Lipid Research, Vol. 24, page 1127 (1982).
ACAT activity was determined by measuring the amount of labeled cholesterol ester produced from [1-^14 C]-oleoyl-CoA and endogenous cholesterol, in accordance with the method of Helgerud et al. [Journal of Lipid Research, Vol. 22, page 271 (1981)].

[2] = Hypocholesterolemic activity (cholesterol-lowering activity) in hypercholesterolemic mice on high cholesterol-cholic acid diet; type: in vivo, ICR mice; conditions: vs control groups; for Reduction % HPL: heparin precipitating lipoproteins; for Reduction % cholesterol: serum
Experimental: Groups of 6 ICR mice (2 subgroups of 3 mice) were made hypercholesterolemic by being fed a high cholesterol-cholic acid diet for 7 days and administered with test compounds orally on the last two days. One-half of the total does was given on day 6 followed by the other half on day 7. After fasting overnight (16 hours after the last dose), the animals were sacrificed and sera were collected together for the each subgroup for measuring the levels of cholesterol and heparin precipitating lipoproteins (HPL). Both cholesterol and HPL levels were measured with autonalyzer by the enzymatic CHOD-PAP method for the former and by the turbidimetric method of Shurr et. al. [in C. E. Dau ed. Atherosclerosis Drug Discovery, Plenum Publishing, New York, pp. 215-229 & 231-249, 1976.] for the latter.

Compound	inhibition at 1 µM [1] [%]	Reduction % HPL ([2]; 3 mg/kg po) [%]	Reduction % cholesterol ([2]; 3 mg/kg po) [%]	Reduction % HPL ([2]; 10 mg/kg po) [%]	Reduction % cholesterol ([2]; 10 mg/kg po) [%]
COc1cccc(OC)c1NC(=O)Cc1c(-c2ccccc2C)c2cc(Cl)ccc2oc1=O [Example 84, 6-Chloro-N-(2,6-dimethoxyphenyl)-4-(2-methylphenyl)-2-oxo-2H-1-benzopyran-3-acetamide]	99.5	28	15	47	33
Cc1ccccc1-c1c(CC(=O)Nc2c(C(C)C)cccc2C(C)C)c(=O)oc2ccc(Cl)cc12 [Example 82, N-[2,6-Bis(1-methylethyl)phenyl]-6-chloro-4-(2-methylphenyl)-2-oxo-2H-1-benzopyran-3-acetamide]	99.3	37	31	50	40
COc1ccccc1-c1c(CC(=O)Nc2c(OC)cccc2OC)oc(=O)c2ccccc12 [Example 74, N-(2,6-Dimethoxyphenyl)-4-(2-methoxyphenyl)-1-oxo-1H-2-benzopyran-3-acetamide]	99.5	32	29	37	33
CC(C)c1cccc(C(C)C)c1NC(=O)Cc1oc(=O)c2ccc(Cl)cc2c1-c1ccccc1 [Example 48, N-[2,6-Bis(1-methylethyl)phenyl]-6-chloro-1-oxo-4-phenyl-1H-2-benzopyran-3-acetamide]	99.2	26	27	39	32
